In patent US20040073973A1, “Plant enzyme and use thereof” (priority 1996, published 2004):

What was measured:
Type in all cases: biochemical, Ulmus glabra
[1] = tested on: Developing Elm Seed Soluble PLA2; assay: Effects of reduction, EGTA and heat on PLA2 activity; settings: for sensitivity of PLA2 activities to reducing agents: purified soluble and microsomal PLA2s; for PLA2 Activity Released [^14C] fatty acids: control 4740 dpm
Protocol: (§1) Membrane associated PLA2 activity was assayed according to Stahl et al. (1995) using sn-1-palmitoyl-sn-2-[^14C]decanoyl-sn-glycerol-3-phosphocholine as substrate. In standard assays of the solubilized microsomal activity and of the soluble activity 1-palmitoyl-2-[[…]]palmitoyl-glycerol-sn-3-phosphocholine was used as substrate and was presented as mixed micelles with the non-ionic detergent lubrol PX, in a PC/detergent molar relation of 1:10. Samples, 0.5-10 μl, were assayed for PLA2 activity by incubation at 30° C. for 5-30 min with 5 nmol of ^14C-labelled phosphatidylcholine (10,000 dpm/nmol) in a total volume of 50 μl of 50 mM Tris/HCl, pH 8.0 containing 10 mM CaCl2 and 0.06% (w/v) lubrol PX. The reaction was stopped by the addition of 400 μl of chloroform/methanol/acetic acid 50:50:1 followed by 150 μl of H2O. The samples were mixed thoroughly and centrifuged 10,000 g for 1 min. Chloroform phases containing extracted lipids were passed through mini-columns of silica gel, followed by a wash with 400 μl of chloroform. The eluates from the silica columns, containing released [^14C]palmitic acid, were collected and analysed by scintillation counting.

microsomal PLA2 = assay: Substrate specificity of microsomal PLA2
Protocol: as §1

[2] = tested on: soluble developing elm seed PLA2; assay: Position specificity of soluble PLA2 (partly purified fraction)
Protocol: as §1

Structure (SMILES) | sensitivity of PLA2 activities to reducing agents [1] | Recovered ^14C activity in LPC (microsomal PLA2) | Recovered ^14C activity in PC (microsomal PLA2) | Recovered ^14C activity in fatty acid (microsomal PLA2) | other results
O[C@H](CS)[C@H](O)CS (racemic) [DTT, dithiothreitol] | sensitive | – | – | – | –
O=C(O)CN(CCOCCOCCN(CC(=O)O)CC(=O)O)CC(=O)O [EGTA] | – | – | – | – | PLA2 Activity Released [^14C] fatty acids ([1]; EGTA 10 mM): 170 dpm
OCCS [Mercaptoethanol] | sensitive | – | – | – | PLA2 Activity Released [^14C] fatty acids ([1]; Mercaptoethanol 1% (v/v)): 170 dpm
CCCCCCCCCCCCCCCC(=O)OC[C@H](COP(=O)([O-])OCC[N+](C)(C)C)OC(=O)CCCCCCCCC [sn-1-16:0-sn-2-[^14C]10:0-PC, sn-1-palmitoyl-sn-2-[^14C]decanoyl-sn-glycerol-3-phosphocholine] | – | 0.6 % of total recovery | 54 % of total recovery | 44 % of total recovery | –
CCCCCCCCCCCCCCCC(=O)OC[C@H](COP(=O)([O-])OCC[N+](C)(C)C)OC(=O)CCCCCCCCCCCCCCC [sn-1-16:0-sn-2-[^14C]16:0-PC, sn-1-palmitoyl-sn-2-[^14C]palmitoyl-sn-glycerol-sn-3-phosphocholine] | – | 0.8 % of total recovery | 65 % of total recovery | 34 % of total recovery | Recovered ^14C activity in LPC [2]: 0.6 % of total recovery; Recovered ^14C activity in PC [2]: 56 % of total recovery; Recovered ^14C activity in fatty acid [2]: 44 % of total recovery
